{"source": "patent US20260183274A1", "about": "“PDK1 REGULATORY COMPOUND AND COMPOSITION CONTAINING THE SAME” (PROVIBIO CO., LTD., priority 2024, published 2026)", "key": {"[1]": {"test_system": "HCT-116 colon cancer cell lines", "test": "Matrigel Invasion Assay, HCT-116", "assay_type": "cell-based, human", "settings": "24 hours treatment, FIG. 30", "procedure": "To evaluate the metastasis inhibitory efficacy of the compounds of the present invention on HCT-116 colon cancer cell lines, an Invasion Assay using Matrigel was performed to assess the cells' invasion ability.\nFirst, Matrigel was thawed on ice in RPMI-1640 medium without FBS, then diluted with DMEM at a ratio of 1:20.\nThe diluted Matrigel mixture was applied to the upper chamber at 100 μl per well, and 750 μl of RPMI-1640 without FBS was added to the lower chamber.\nThe plates were then incubated at 37° C. for 1 hour to allow the Matrigel to solidify.\nAfter coating, the Matrigel mixture in the upper chamber was removed using a pipette, and the chamber was washed with RPMI without FBS.\nHuman-derived colorectal cancer cell line HCT-116, obtained from the Korean Cell Bank, was cultured in RPMI-1640 medium containing 10% FBS.\nFollowing stabilization, the cells were harvested using Trypsin-EDTA treatment, centrifuged at 1,200 rpm for 3 minutes, the supernatant was removed, and the cells were resuspended in the same medium, the medium in the lower chamber was replaced with 750 μl of RPMI-1640 supplemented with 10% FBS, and the cells were seeded into the upper chamber at a density of 5×10^4 cells/well.\nThe cells were cultured for 24 hours after attachment, and then the compounds according to the present invention (G078, G085, G086, G088, G089, PBK-2024-010, PBK-2025-010, PBK-2025-013, PBK-2025-016) and the control substance DMSO were diluted and added to the upper chamber after removing the medium.\nAdditionally, the medium in the lower chamber was replaced with fresh RPMI-1640 containing FBS, and the culture was continued.\nAfter an additional 24 hours, the medium was removed, and 1 ml of methanol was added for 10 minutes to fix the cells.\nSubsequently, 1 ml of Hematoxylin was added and reacted for 5 minutes, followed by 1 ml of Eosin, which was reacted for 30 seconds. The sample was then washed with distilled water (DW).\nAfter staining was complete, any remaining cells in the upper chamber were removed. Finally, the infiltrated cells were observed under a microscope, photographed, and the degree of infiltration was analyzed."}, "[2]": {"test_system": "BALB/c mice with induced psoriasis", "test": "Psoriasis animal model (Aldara cream, Imiquimod)", "assay_type": "in vivo, mouse", "procedure": "To verify the therapeutic effect of the compound according to the present invention on psoriasis, a psoriasis animal model was established as follows, and the compound according to the present invention was administered to evaluate the alleviation of skin lesions and changes in immune cell patterns.\nFor the establishment of the psoriasis animal model, BALB/c mice (7 weeks old, female, 20 g) were purchased from HanabioTech Co., Ltd. and acclimatized to the rearing environment for one week.\nSubsequently, the hair on the mouse back was shaved using a hair removal device for the first time, and then completely shaved using a depilatory cream (Nicrin Cream (80% thioglycolic acid, Il Dong Pharmaceutical)) for the second time. The mice were then kept for 24 hours to confirm the absence of skin damage.\n[Normal control group (Normal, Not Treatment), psoriasis-induced control group (Psoriasis, Not Treatment), psoriasis-induced vehicle control group (Psoriasis, Vehicle), experimental group (GO85, GO86, GO88, GO89, PBK-2024-010, PBK-2024-026, PBK-2025-002, PBK-2025-004, PBK-2025-016, PBK-2025-017, PBK-2025-023)]. […]\nBody weights of mice in each group were measured on days 1, 4, and 8 after the start of injection and psoriasis induction. […]\nTo evaluate the therapeutic effect in a psoriasis-induced mouse model, the PASI (Psoriasis Area and Severity Index) score was measured.\nThe PASI score is based on three criteria: erythema, scaling, and skin thickness, each scored from 0 (none) to 4 (severe). […]\nObservations were conducted daily at the same time, and the same observer visually assessed each criterion and recorded the scores, with the results presented in FIG. 13. […]\nAll samples were measured in duplicate, and the absorbance was measured at 450 nm using a microplate reader."}, "[3]": {"test_system": "Human Pancreas Adenocarcinoma cell line, AsPC-1", "test": "Relative cell viability CCK-8, AsPC-1", "assay_type": "cell-based", "settings": "48 hours; for viability at 1 µM: ASPC1, 1 μM; for viability at 10 µM: ASPC1, 10 μM; for viability at 30 µM: ASPC1, 30 μM; for viability at 50 µM: ASPC1, 50 μM", "procedure": "Human-derived breast cancer cell line MCF-7, human-derived lung cancer cell line A549, human-derived colorectal cancer cell line HCT-116, human pancreatic cancer cell line AsPC-1, glioblastoma cell line A172, and melanoma cell line Malme-3M were obtained from the Korean Cell Bank. gastric cancer cell line SNU-719, and bladder cancer cell line T24 were cultured in RPMI-1640 medium containing 10% FBS.\nFollowing stabilization, the cells were harvested using Trypsin-EDTA treatment, centrifuged at 1,200 rpm for 3 minutes, the supernatant was removed, and the cells were resuspended in the same medium. They were then seeded into a 96-well plate (Costar 96-well cell culture plate, Corning) at 100 μL per well, and the conditions were adjusted as indicated in Table 5.\nThe cells were cultured in a 5% CO2 incubator at 37° C. for 24 hours, and after stabilization of the cells, each plate was washed with 200 μL of PBS per well and treated with 50 μL of culture medium per well.\nAfter that, 10 μL of CCK-8 was added to each well, and the plate was incubated again at 37° C. in a 5% CO2 incubator for 2 hours.\nIn other words, when the survival rate of untreated cells (DMSO) is set at 100%, the relative cell survival rate in each group treated with the drug at different concentrations is indicated."}}}
{"smiles": "Nc1ncccc1C(=O)NCCCCCCCCCCCCN1CCNCC1", "note": "[Compound 5, 2-Amino-N-(12-(piperazin-1-yl)dodecyl)-nicotinamide]", "values": [{"measurement": "Number of infiltrated cells (invasion)", "setting": "[1]", "value": "reduction in the number of infiltrated cells"}]}
{"smiles": "CC1(C)CN(CCCCCCCCCCCCC(=O)Nc2nc(N)c3[nH]cnc3n2)CCO1", "note": "[Compound 11, 12-[4-(2,2-dimethylmorpholin-4-yl)]dodecyl-N-(6-aminopurine-2-yl) carboxamide]", "values": [{"measurement": "Efficacy in improving dermatological symptoms", "setting": "[2]", "value": "excellent efficacy in improving dermatological symptoms"}, {"measurement": "Number of infiltrated cells (invasion)", "setting": "[1]", "value": "reduction in the number of infiltrated cells"}]}
{"smiles": "Nc1ncccc1C(=O)NCCCCCCCCCCCCN1CCNCC1", "note": "[Compound 14, 2-Amino-N-(12-(piperazin-1-yl)dodecyl)nicotinamide]", "values": [{"measurement": "viability at 1 µM", "setting": "[3]", "value": 43.1, "unit": "%"}, {"measurement": "viability at 10 µM", "setting": "[3]", "value": 45.4, "unit": "%"}, {"measurement": "viability at 30 µM", "setting": "[3]", "value": 36.8, "unit": "%"}, {"measurement": "viability at 50 µM", "setting": "[3]", "value": 30.5, "unit": "%"}, {"measurement": "Efficacy in improving dermatological symptoms", "setting": "[2]", "value": "excellent efficacy in improving dermatological symptoms"}]}
{"smiles": "Nc1nc(NC(=O)CCCCCCCCCCCCN2CCN(CCO)CC2)nc2nc[nH]c12", "note": "[Compound 15, 12-[4-(2-hydroxyethyl)piperazin-1-yl]dodecyl-N-(6-aminopurine-2-yl) carboxamide]", "values": [{"measurement": "viability at 1 µM", "setting": "[3]", "value": 40.9, "unit": "%"}, {"measurement": "viability at 10 µM", "setting": "[3]", "value": 42.8, "unit": "%"}, {"measurement": "viability at 30 µM", "setting": "[3]", "value": 44.1, "unit": "%"}, {"measurement": "viability at 50 µM", "setting": "[3]", "value": 41.5, "unit": "%"}, {"measurement": "Efficacy in improving dermatological symptoms", "setting": "[2]", "value": "excellent efficacy in improving dermatological symptoms"}, {"measurement": "Number of infiltrated cells (invasion)", "setting": "[1]", "value": "reduction in the number of infiltrated cells"}]}
